Source: US20100197688A1, “EPHA4 RTK INHIBITORS FOR TREATMENT OF NEUROLOGICAL AND NEURODEGENERATIVE DISORDERS AND CANCER” (priority 2008, published 2010)

Legend:
P38alpha kinase = target: T1, P38alpha kinase (Homo sapiens, UniProt Q16539); test: P38 alpha kinase counterscreen assay (Caliper); format: biochemical
T1 construct: purchased Dundee Library
Experimental: A counterscreen assay was performed to measure p38alpha kinase activity using the Caliper System (LifeSciences, USA). This system is based on the microfluidic technology. P38 alpha kinase activity was measured by the shift in mobility of the non-phosphorylated form when separated by electrophoresis and detected via LED (Light Emitting Diode) induced fluorescence. This assay was automated following the manufacturer's protocol. P38alpha kinase and its substrate GST-MK2 were bought from Dundee Library.
Compounds were titrated, concentration-response curves were represented and the concentrations for 50% inhibition (IC50) were calculated.

[1] = tested on: Primary Rat cortical astrocytes; test: Scratch wound assay, astrocytes; format: cell-based
Experimental: Primary Rat cortical astrocytes were purchased from Lonza (Walkersvelle Inc., MA, USA). Cells were plated in culture flasks at a density of 1.106-3.106 cells/ml, and maintained at 37° C. and […], in Astrocyte Growth Medium Bulletkit™ (Lonza Walkersville Inc., MA, USA). When astrocyte cultures reached confluence, cells were trypsinized and replated at 6.105 cells/ml onto 24 well ImageLock™ plate (Essen Instruments, Mich., USA).
Scratch wound assays are commonly used to assess the effects of drugs and drug candidates on the cellular proliferation and/or migration associated with wound closing. The IncuCyte™ system (Essen Instruments, Mich., USA), an automated imaging platform, provides ongoing, real-time images and quantitative data generated throughout the wound-closing process. […] Wound closure can be automatically monitored using the wound confluence (% confluence). […]
The calculation of the area under the curve (AUC) of the % confluence function of the time gave a quantitative measurement of compounds efficacy on the scratch wound closing. […] The percentage of inhibition was calculated from the AUCs at each dose in comparison with the AUCs of the control wells (1% DMSO). Concentration-response curves were represented and the concentrations at the inflexion point (IP) were calculated. […]

[2] = tested on: Primary Rat cortical astrocytes; test: Proliferation assay (cell confluence), astrocytes; format: cell-based; settings: at 5 μM
Experimental: C2C12 were plated at 15,000 cells per well and then differentiated into myotubes with DMEM supplemented with 2% horse serum for 3 days in 24 well ImageLock™ plate (Essen Instruments, Mich., USA). Primary Rat cortical astrocytes were plated at 3.105 cells/ml onto 24 well ImageLock™ plate.
Cells were placed into the IncuCyte™ at 37° C. and 95% CO2/5% O2, for two to three days. During this time, the cells within each well were repeatedly imaged at fixed time intervals (every three hours). The IncuCyte™ system automatically monitored the proliferation using the percentage of confluence. Percent of confluence can be graphed over time to evaluate the characteristics of proliferation in the presence of pharmacological agents.
[…] The percentage of reduction of cell confluence was calculated from the AUCs in comparison with the AUCs of the control wells (1% DMSO).

[3] = tested on: Primary Rat cortical astrocytes; test: Toxicity (percent of cell death), astrocytes; format: cell-based; settings: 20 μM
Experimental: EphA4 kinase inhibition is assessed by both an enzymatic assay measuring the phosphorylation of a purified recombinant EphA4 kinase and a cell-based assay using the activation of pGas-Luciferase system in EphA4-transfected CHO-K1 cells. The functional effects of EphA4 RTK inhibitors on cell motility and proliferation is evaluated by the scratch wound assay. The effect of EphA4 RTK inhibitors is also directly measured on the cell confluence. The counterscreen assays (cell counterscreen, Src, Jak2 and P38α kinase) identified other potential inhibitory activities of compounds unrelated to EphA4 kinase. The toxicity is measured by the percent of cell death in the different cell assays. Values represent IC50 and IP in μM calculated from the dose-response curves. Values in parentheses give the maximum percent inhibition.

T1 sequence (Q16539 whole entry): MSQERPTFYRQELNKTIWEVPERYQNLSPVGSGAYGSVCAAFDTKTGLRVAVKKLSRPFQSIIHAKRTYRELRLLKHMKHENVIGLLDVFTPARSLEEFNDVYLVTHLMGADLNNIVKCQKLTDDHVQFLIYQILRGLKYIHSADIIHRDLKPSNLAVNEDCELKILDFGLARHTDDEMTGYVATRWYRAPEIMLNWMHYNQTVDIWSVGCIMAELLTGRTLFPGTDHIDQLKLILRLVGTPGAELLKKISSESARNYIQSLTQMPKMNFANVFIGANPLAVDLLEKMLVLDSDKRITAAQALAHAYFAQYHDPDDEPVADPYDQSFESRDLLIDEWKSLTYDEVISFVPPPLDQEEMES

Cc1ccc(NC(=O)c2cccc(C(F)(F)F)c2)cc1-c1ccc(O)c(NC=O)c1 [Example 133]
IC50 (P38alpha kinase): 6.9 µM | IC50 ([1]; Rattus norvegicus, Astrocyte, inflexion point, from AUC of % wound confluence, read-out: Scratch Assay Astrocytes IP): 5 µM | Scratch Assay Astrocytes max inhibition in % ([1]; value in parentheses): 50% | % Reduction of Confluence Astrocytes [2]: 28.2% at 5 μM | Max Toxicity Astrocytes % of cell death [3]: 0% 20 μM
